Measurements published in US8952024B2, “Herbicidal pyrimidone derivatives” (E I du Pont de Nemours and Company, priority 2009, dated 2015).

How the values were obtained:
Format in all cases: in vivo
[1] = test system: barnyardgrass (Echinochloa crus-galli); experiment: Test A pre-/postemergence plant response
Source text: (§1) Seeds of barnyardgrass (Echinochloa crus-galli), large crabgrass (Digitaria sanguinalis), giant foxtail (Setaria faberii), morningglory (Ipomoea spp.), pigweed (Amaranthus retroflexus), velvetleaf (Abutilon theophrasti), wheat (Triticum aestivum) and corn (Zea mays) were planted into a blend of loam soil and sand and treated preemergence with a directed soil spray using test chemicals formulated in a non-phytotoxic solvent mixture which included a surfactant. At the same time these species were also treated with postemergence applications of test compounds formulated in the same manner.
(§2) Plants ranged in height from two to ten cm and were in the one- to two-leaf stage for the postemergence treatment. Treated plants and untreated controls were maintained in a greenhouse for approximately ten days, after which time all treated plants were compared to untreated controls and visually evaluated for injury. Plant response ratings, summarized in Table A, are based on a 0 to 100 scale where 0 is no effect and 100 is complete control. A dash (-) response means no test result.

[2] = test system: morningglory (Ipomoea spp.); experiment: Test A pre-/postemergence plant response
Source text: as §1, §2

[3] = test system: corn (Zea mays); experiment: Test A pre-/postemergence plant response
Source text: as §1, §2

[4] = test system: wheat (Triticum aestivum); experiment: Test A pre-/postemergence plant response
Source text: as §1, §2

[5] = test system: giant foxtail (Setaria faberii); experiment: Test A pre-/postemergence plant response
Source text: as §1, §2

[6] = test system: large crabgrass (Digitaria sanguinalis); experiment: Test A pre-/postemergence plant response
Source text: as §1, §2

[7] = test system: pigweed (Amaranthus retroflexus); experiment: Test A pre-/postemergence plant response
Source text: as §1, §2

[8] = test system: velvetleaf (Abutilon theophrasti); experiment: Test A pre-/postemergence plant response
Source text: as §1, §2

[9] = test system: barnyardgrass (Echinochloa crus-galli); experiment: Test B flooded paddy test; settings: for Plant response rating, Flood, Barnyardgrass: 250 g ai/ha, flooded paddy test, visual rating on 0 to 100 scale (0 no effect, 100 complete control) after 13 to 15 days; for Plant response rating, Barnyardgrass: Flood (flooded paddy test), 13 to 15 days; for Barnyardgrass plant response rating: Flood, 31 g ai/ha, scale 0 to 100 (0 no effect, 100 complete control)
How it was run: (§3)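 Rice, umbrella sedge, ducksalad and barnyardgrass were grown to the 2-leaf stage, flooded to 3 cm, and compound was applied directly to the paddy water, with that depth kept throughout. After 13 to 15 days in the greenhouse, plants were visually rated against controls on a 0 (no effect) to 100 (complete control) scale.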

[10] = test system: ducksalad (Heteranthera limosa); experiment: Test B flooded paddy test; settings: for Plant response rating, Flood, Ducksalad: 250 g ai/ha, flooded paddy test, visual rating on 0 to 100 scale (0 no effect, 100 complete control) after 13 to 15 days; for Plant response rating, Ducksalad: Flood (flooded paddy test), 13 to 15 days; for Ducksalad plant response rating: Flood, 31 g ai/ha, scale 0 to 100 (0 no effect, 100 complete control)
How it was run: as §3

[11] = test system: rice (Oryza sativa); experiment: Test B flooded paddy test; settings: for Plant response rating, Flood, Rice: 250 g ai/ha, flooded paddy test, visual rating on 0 to 100 scale (0 no effect, 100 complete control) after 13 to 15 days; for Plant response rating, Rice: Flood (flooded paddy test), 13 to 15 days; for Rice plant response rating: Flood, 31 g ai/ha, scale 0 to 100 (0 no effect, 100 complete control)
How it was run: as §3

[12] = test system: umbrella sedge (Cyperus difformis); experiment: Test B flooded paddy test; settings: for Plant response rating, Flood, Sedge, Umbrella: 250 g ai/ha, flooded paddy test, visual rating on 0 to 100 scale (0 no effect, 100 complete control) after 13 to 15 days; for Plant response rating, Sedge, Umbrella: Flood (flooded paddy test), 13 to 15 days; for Sedge, Umbrella plant response rating: Flood, 31 g ai/ha, scale 0 to 100 (0 no effect, 100 complete control)
How it was run: as §3

[13] = Postemergence, 125 g ai/ha, 0 to 100 scale where 0 is no effect and 100 is complete control
[14] = Postemergence, 500 g ai/ha, 0 to 100 scale, 0 = no effect, 100 = complete control, approx. ten days
[15] = Preemergence, 125 g ai/ha, 0 to 100 scale, 0 = no effect, 100 = complete control
[16] = Preemergence, 500 g ai/ha, visual injury, 0 to 100 scale (0 no effect, 100 complete control), approx. ten days
[17] = 62 g ai/ha, scale of 0 to 100 where 0 is no effect and 100 is complete control
[18] = 125 g ai/ha, scale 0 to 100, 0 is no effect, 100 is complete control
[19] = Preemergence, 500 g ai/ha, 0 to 100 scale, 0 = no effect, 100 = complete control

COCCCn1c(-c2cccc(Cl)c2)ncc(C(=O)C2=C(O)CCCC2=O)c1=O [Compound 143]
100: Plant response rating, Morningglory [2, 14] | Plant response rating, Velvetleaf [8, 13] | Plant response rating, Velvetleaf [8, 14] | Plant response rating, Velvetleaf [8, 16]
40: Plant response rating, Barnyardgrass [1, 15]
80: Plant response rating, Foxtail, Giant [5, 14] | Plant response rating, Ducksalad [10, 17] | Plant response rating, Ducksalad [10, 18] | Ducksalad plant response rating [10]
20: Plant response rating, Corn [3, 14] | Plant response rating, Flood, Barnyardgrass [9]
0: Plant response rating, Corn [3, 15] | Plant response rating, Corn [3, 16] | Plant response rating, Wheat [4, 13] | Plant response rating, Wheat [4, 15] | Plant response rating, Wheat [4, 16] | Plant response rating, Barnyardgrass [9, 17] | Plant response rating, Barnyardgrass [9, 18] | Barnyardgrass plant response rating [9] | Plant response rating, Flood, Rice [11] | Plant response rating, Rice [11, 17] | Plant response rating, Rice [11, 18] | Rice plant response rating [11] | Plant response rating, Sedge, Umbrella [12, 17] | Plant response rating, Sedge, Umbrella [12, 18] | Sedge, Umbrella plant response rating [12]
65: Plant response rating, Flood, Sedge, Umbrella [12]
60: Plant response rating, Foxtail, Giant [5, 13]
50: Plant response rating, Crabgrass, Large [6, 15]
10: Plant response rating, Morningglory [2, 15] | Plant response rating, Corn [3, 13] | Plant response rating, Wheat [4, 14] | Plant response rating, Foxtail, Giant [5, 15]
70: Plant response rating, Barnyardgrass [1, 13] | Plant response rating, Morningglory [2, 16] | Plant response rating, Foxtail, Giant [5, 16] | Plant response rating, Crabgrass, Large [6, 13] | Plant response rating, Pigweed [7, 13] | Plant response rating, Pigweed [7, 15] | Plant response rating, Velvetleaf [8, 15]
90: Plant response rating, Barnyardgrass [1, 14] | Plant response rating, Barnyardgrass [1, 16] | Plant response rating, Morningglory [2, 13] | Plant response rating, Crabgrass, Large [6, 14] | Plant response rating, Crabgrass, Large [6, 16] | Plant response rating, Pigweed [7, 14] | Plant response rating, Pigweed [7, 16] | Plant response rating, Flood, Ducksalad [10]

Cc1ccc(Cl)cc1-n1c(-c2cccc(Cl)c2)ncc(C(=O)C2=C(O)CCCC2=O)c1=O [Compound 148]
15: Plant response rating, Barnyardgrass [9, 18]
20: Plant response rating, Rice [11, 18] | Rice plant response rating [11]
100: Plant response rating, Barnyardgrass [1, 14] | Plant response rating, Morningglory [2, 13] | Plant response rating, Morningglory [2, 14] | Plant response rating, Pigweed [7, 14] | Plant response rating, Velvetleaf [8, 13] | Plant response rating, Velvetleaf [8, 14] | Plant response rating, Flood, Ducksalad [10]
0: Plant response rating, Morningglory [2, 15] | Plant response rating, Morningglory [2, 16] | Plant response rating, Corn [3, 13] | Plant response rating, Corn [3, 15] | Plant response rating, Corn [3, 16] | Plant response rating, Wheat [4, 13] | Plant response rating, Wheat [4, 14] | Plant response rating, Wheat [4, 15] | Plant response rating, Wheat [4, 19] | Plant response rating, Foxtail, Giant [5, 15] | Plant response rating, Crabgrass, Large [6, 15] | Plant response rating, Pigweed [7, 15] | Plant response rating, Barnyardgrass [9, 17] | Barnyardgrass plant response rating [9]
30: Plant response rating, Barnyardgrass [1, 16] | Plant response rating, Velvetleaf [8, 15]
85: Plant response rating, Sedge, Umbrella [12, 18]
90: Plant response rating, Barnyardgrass [1, 13] | Plant response rating, Foxtail, Giant [5, 14] | Plant response rating, Crabgrass, Large [6, 14] | Plant response rating, Pigweed [7, 13] | Plant response rating, Ducksalad [10, 17] | Plant response rating, Ducksalad [10, 18] | Ducksalad plant response rating [10]
10: Plant response rating, Barnyardgrass [1, 15] | Plant response rating, Foxtail, Giant [5, 16] | Plant response rating, Rice [11, 17]
70: Plant response rating, Crabgrass, Large [6, 13]
95: Plant response rating, Flood, Sedge, Umbrella [12]
80: Plant response rating, Velvetleaf [8, 19] | Plant response rating, Sedge, Umbrella [12, 17] | Sedge, Umbrella plant response rating [12]
50: Plant response rating, Crabgrass, Large [6, 16] | Plant response rating, Flood, Barnyardgrass [9] | Plant response rating, Flood, Rice [11]
60: Plant response rating, Corn [3, 14] | Plant response rating, Foxtail, Giant [5, 13] | Plant response rating, Pigweed [7, 16]

COc1ccc(-n2c(-c3cccc(Cl)c3)ncc(C(=O)C3=C(O)CCCC3=O)c2=O)cc1 [Compound 151]
40: Plant response rating, Morningglory [2, 13]
70: Plant response rating, Foxtail, Giant [5, 14] | Plant response rating, Crabgrass, Large [6, 14] | Plant response rating, Pigweed [7, 16] | Plant response rating, Velvetleaf [8, 19]
100: Plant response rating, Barnyardgrass [1, 16] | Plant response rating, Morningglory [2, 14] | Plant response rating, Pigweed [7, 13] | Plant response rating, Pigweed [7, 14] | Plant response rating, Velvetleaf [8, 13] | Plant response rating, Velvetleaf [8, 14] | Plant response rating, Flood, Ducksalad [10] | Plant response rating, Ducksalad [10, 18] | Plant response rating, Flood, Sedge, Umbrella [12] | Plant response rating, Sedge, Umbrella [12, 18]
30: Plant response rating, Morningglory [2, 16] | Plant response rating, Crabgrass, Large [6, 13] | Plant response rating, Barnyardgrass [9, 18]
90: Plant response rating, Barnyardgrass [1, 14]
50: Plant response rating, Crabgrass, Large [6, 16] | Plant response rating, Pigweed [7, 15] | Plant response rating, Velvetleaf [8, 15] | Plant response rating, Flood, Rice [11]
60: Plant response rating, Barnyardgrass [1, 13] | Plant response rating, Foxtail, Giant [5, 16]
55: Plant response rating, Flood, Barnyardgrass [9]
85: Plant response rating, Sedge, Umbrella [12, 17] | Sedge, Umbrella plant response rating [12]
0: Plant response rating, Corn [3, 13] | Plant response rating, Corn [3, 15] | Plant response rating, Corn [3, 16] | Plant response rating, Wheat [4, 13] | Plant response rating, Wheat [4, 15] | Barnyardgrass plant response rating [9] | Plant response rating, Rice [11, 17]
80: Plant response rating, Ducksalad [10, 17] | Ducksalad plant response rating [10]
15: Plant response rating, Barnyardgrass [9, 17] | Plant response rating, Rice [11, 18]
20: Plant response rating, Barnyardgrass [1, 15] | Plant response rating, Wheat [4, 14] | Plant response rating, Wheat [4, 19] | Plant response rating, Foxtail, Giant [5, 13] | Plant response rating, Foxtail, Giant [5, 15] | Rice plant response rating [11]
10: Plant response rating, Corn [3, 14] | Plant response rating, Crabgrass, Large [6, 15]
